Like-named read-outs stand apart in the source and are kept apart here.
Tested on: HIV-1 (H9/IIIB strain)
Assay: Multiple round HIV-1 infection assay in MT4-GFP cells (wild type cell assay, Viking)
Assay type: cell-based
Conditions: 0% NHS condition, MT4-GFP cells infected with HIV-1 H9/IIIB, inhibition of reproductive ratio R0, ~48 h and ~72 h post-infection, read-out: WILD TYPE CELL ASSAY Viking IP (0% NHS)
Experimental: Assessing Antiviral Potency in a Multiple Round HIV-1 Infection Assay
The antiviral activity of the Examples herein was assessed in an assay that measures the rate of replication of HIV in cell culture, and performed according to the following procedure. HIV-1 replication was monitored using MT4-gag-GFP clone D3 (hereafter designated MT4-GFP), which are MT-4 cells modified to harbor a GFP reporter gene, the expression of which is dependent on the HIV-1 expressed proteins tat and rev. Productive infection of an MT4-GFP cell with HIV-1 results in GFP expression approximately 24 h post-infection. MT4-GFP cells were maintained at 37° C./5% CO2/90% relative humidity in RPMI 1640 supplemented with 10% fetal bovine serum, 100 U/ml penicillin/streptomycin, and 400 μg/ml G418 to maintain the reporter gene. For infections, MT4-GFP cells were placed in the same medium lacking G418 and infected overnight with HIV-1 (H9/IIIB strain) virus at an approximate multiplicity of infection of 0.01 in the same incubation conditions. Cells were then washed and re-suspended in either RPMI 1640 at 2×10^5 cells/mL (0% NHS condition) or 100% normal human serum (NHS) at 2×10^5 cells/mL (100% NHS condition). Compound plates were prepared by dispensing compounds dissolved in DMSO into wells of 384 well poly-D-lysine-coated plates (0.2 μl/well) using an ECHO acoustic dispenser. Each compound was tested in a 10-point serial 3-fold dilution (typical final concentrations: 1050 nM-0.05 nM for 0% NHS condition or […]-2.13 nM for 100% NHS condition). Controls included no inhibitor (DMSO only) and a combination of three antiviral agents (efavirenz, indinavir, an in-house integrase strand transfer inhibitor at final concentrations of […] each). Cells were added ([…]) to compound plates and the infected cells were maintained at 37° C./5% CO2/90% relative humidity.
Infected cells were quantified at two time points, ˜48 h and ˜72 h post-infection, by counting the number of green cells in each well using an Acumen eX3 scanner. The increase in the number of green cells over ˜24 h period gives the reproductive ratio, RO, which is typically 5-15 and has been shown experimentally to be in logarithmic phase (data not shown). Inhibition of R0 is calculated for each well, and IC50s determined by non-linear 4-parameter curve fitting.

[1] = Human immunodeficiency virus 1, IIIB

| SMILES | IC50 [1] [nM] | IC50 [nM] |
| --- | --- | --- |
| CCN1CN2CC(O)c3c(C(=O)NCc4c(F)ccc(F)c4F)c(=O)c(O)c(n32)C1=O (stereo not shown) [Compound 47] | 2.8 | – |
| CCN1CN2CC(O)c3c(C(=O)NCc4c(F)ccc(F)c4F)c(=O)c(O)c(n32)C1=O (stereo not shown) [Compound 48] | – | 2.3 |
| CCN1CN2CC(O)c3c(C(=O)NCc4ccc(F)c(Cl)c4F)c(=O)c(O)c(n32)C1=O (stereo not shown) [Compound 49] | – | 2 |
| CCN1CN2CC(O)c3c(C(=O)NCc4ccc(F)c(Cl)c4F)c(=O)c(O)c(n32)C1=O (stereo not shown) [Compound 50] | – | 4.2 |
| CCN1CN2CC(O)c3c(C(=O)NCc4cccc(Cl)c4F)c(=O)c(O)c(n32)C1=O (stereo not shown) [Compound 51] | – | 2.1 |
| CCN1CN2CC(O)c3c(C(=O)NCc4cccc(Cl)c4F)c(=O)c(O)c(n32)C1=O (stereo not shown) [Compound 52] | – | 8.1 |
| CCN1CN2CC(O)c3c(C(=O)NCc4c(F)ccc(Cl)c4F)c(=O)c(O)c(n32)C1=O (stereo not shown) [Compound 53] | – | 1.1 |
| CCN1CN2CC(O)c3c(C(=O)NCc4c(F)ccc(Cl)c4F)c(=O)c(O)c(n32)C1=O (stereo not shown) [Compound 54] | – | 4.7 |
| CCN1CN2CC(O)c3c(C(=O)NCc4c(F)cc(F)cc4F)c(=O)c(O)c(n32)C1=O (stereo not shown) [Compound 55] | 1.6 | – |
| CCN1CN2CC(O)c3c(C(=O)NCc4c(F)cc(F)cc4F)c(=O)c(O)c(n32)C1=O (stereo not shown) [Compound 56] | – | 2.9 |
| CCN1CN2CC(O)c3c(C(=O)NCc4ccc(F)cc4F)c(=O)c(O)c(n32)C1=O (stereo not shown) [Compound 57] | 2.4 | – |
| CCN1CN2CC(O)c3c(C(=O)NCc4ccc(F)cc4F)c(=O)c(O)c(n32)C1=O (stereo not shown) [Compound 58] | – | 4 |
| CCN1CN2CC(O)c3c(C(=O)NCc4ccc(F)c(F)c4F)c(=O)c(O)c(n32)C1=O (stereo not shown) [Compound 59] | 2.5 | – |
| CCN1CN2CC(O)c3c(C(=O)NCc4ccc(F)c(F)c4F)c(=O)c(O)c(n32)C1=O (stereo not shown) [Compound 60] | – | 2.8 |
| CCN1CN2CC(O)c3c(C(=O)NCc4ccc(F)cc4)c(=O)c(O)c(n32)C1=O (stereo not shown) [Compound 61] | – | 1.9 |
| CCN1CN2CC(O)c3c(C(=O)NCc4ccc(F)cc4)c(=O)c(O)c(n32)C1=O (stereo not shown) [Compound 62] | – | 5.2 |
| CCN1CN2CC(O)c3c(C(=O)NCc4ccccc4F)c(=O)c(O)c(n32)C1=O (stereo not shown) [Compound 63] | – | 1.6 |

Continued, values first:

| IC50 [1] [nM] | IC50 [nM] | SMILES |
| --- | --- | --- |
| – | 5.9 | CCN1CN2CC(O)c3c(C(=O)NCc4ccccc4F)c(=O)c(O)c(n32)C1=O (stereo not shown) [Compound 64] |
| 3.7 | – | CCN1C(=O)c2c(O)c(=O)c(C(=O)NCc3c(F)ccc(Cl)c3F)c3n2N(CC3O)C1C (stereo not shown) [Compound 71] |
| – | 2.3 | CCN1C(=O)c2c(O)c(=O)c(C(=O)NCc3c(F)ccc(Cl)c3F)c3n2N(CC3O)C1C (stereo not shown) [Compound 72] |
| – | 35 | CCN1C(=O)c2c(O)c(=O)c(C(=O)NCc3ccc(C(F)F)cc3)c3n2N(CC3O)C1C (stereo not shown) [Compound 75] |
| – | 88 | CCN1C(=O)c2c(O)c(=O)c(C(=O)NCc3ccc(C(F)F)cc3)c3n2N(CC3O)C1C (stereo not shown) [Compound 76] |
| – | 103 | CCN1C(=O)c2c(O)c(=O)c(C(=O)NCc3ccc(C(F)(F)F)cc3)c3n2N(CC3O)C1C (stereo not shown) [Compound 79] |
| – | 219 | CCN1C(=O)c2c(O)c(=O)c(C(=O)NCc3ccc(C(F)(F)F)cc3)c3n2N(CC3O)C1C (stereo not shown) [Compound 80] |
| 2.5 | – | CCN1C(=O)c2c(O)c(=O)c(C(=O)NCc3c(F)ccc(F)c3F)c3n2N(CC3O)C1C (stereo not shown) [Compound 83] |
| – | 2.1 | CCN1C(=O)c2c(O)c(=O)c(C(=O)NCc3c(F)ccc(F)c3F)c3n2N(CC3O)C1C (stereo not shown) [Compound 84] |
| 4.2 | – | CCN1C(=O)c2c(O)c(=O)c(C(=O)NCc3ccc(F)cc3)c3n2N(CC3O)C1C (stereo not shown) [Compound 87] |
| – | 2.9 | CCN1C(=O)c2c(O)c(=O)c(C(=O)NCc3ccc(F)cc3)c3n2N(CC3O)C1C (stereo not shown) [Compound 88] |
| 3.3 | – | CCN1C(=O)c2c(O)c(=O)c(C(=O)NCc3ccc(F)cc3F)c3n2N(CC3O)C1C (stereo not shown) [Compound 91] |
| – | 1.7 | CCN1C(=O)c2c(O)c(=O)c(C(=O)NCc3ccc(F)cc3F)c3n2N(CC3O)C1C (stereo not shown) [Compound 92] |
| 1.5 | – | CN1C(=O)c2c(O)c(=O)c(C(=O)NCc3ccc(F)cc3F)c3n2N(CC3O)C12CCOC2 (stereo not shown) [Compound 113] |
| – | 1.9 | CN1C(=O)c2c(O)c(=O)c(C(=O)NCc3ccc(F)cc3F)c3n2N(CC3O)C12CCOC2 (stereo not shown) [Compound 114] |
| 1.8 | – | CN1C(=O)c2c(O)c(=O)c(C(=O)NCc3c(F)ccc(Cl)c3F)c3n2N(CC3O)C12CCOC2 (stereo not shown) [Compound 117] |
| – | 1.6 | CN1C(=O)c2c(O)c(=O)c(C(=O)NCc3c(F)ccc(Cl)c3F)c3n2N(CC3O)C12CCOC2 (stereo not shown) [Compound 118] |

From patent US11884683B2, “Tricyclic heterocycle compounds useful as HIV integrase inhibitors” (Merck Sharp & Dohme LLC, priority 2018, dated 2024)
